Test system: CDF1 male mice
Experiment: Spontaneous activity for 60 minutes after 3 hours forced walking exercise (treadmill), infrared sensor
Type: in vivo
Details: oral, Bonito Extract A 1 g/kg in terms of a free amino acid amount, known components of Bonito Extract A, vs Control group
Procedure: Three groups (A, B and C groups) of 5-week-old CDF1 male mice, each group consisting of 8 mice (n=8 for each group), were put in a treadmill and subjected to forced walking exercise for 3 hours. Then, the mice of the respective groups were orally administrated, using a gastric sonde, with (1) Bonito Extract A, (2) Bonito Extract B, and (3) Bonito Extract C in an amount of 1 g/kg in terms of free amino acid amount in the bonito extracts. Subsequently, their spontaneous activity for 60 minutes was measured using a spontaneous activity measuring apparatus provided with an infrared sensor, and comparison with the control group (Control group which was administrated with only deionized distilled water in the same manner as the samples) was carried out. The respective samples and the distilled water were administered in amounts of 0.5 mL. The result is represented in FIG. 1.
In the Figure, *, ** and *** represent significant differences from the control group, * being at p<0.05, ** being at p<0.01, and *** being at p<0.001. “Total counts” refers to the number of times of exercising that were measured with the infrared sensor for 60 minutes.
Three groups of 5-week-old CDF1 male mice, each group consisting of 8 mice (n=8 for each group), were put in a treadmill and subjected to forced walking exercise for 3 hours. […]

| Compound | recovery of spontaneous activity (Test Example 6, FIGS. 8, 9 and 10) |
| --- | --- |
| inosine 1-phosphate [nucleic acid] | recovery of spontaneous activity was not observed |
| [Cl-].[Na+] [NaCl] | recovery of spontaneous activity was not observed |
